Measured values as given in patent US8138304B2, “Neural regeneration peptides and formulations thereof” (Neuren Pharmaceuticals Limited, priority 2005, dated 2012).
Where no end group is shown, it is not given here.

Legend:
JAr cells = assay: TNF-alpha-induced cytotoxicity in immortalized trophoblast cell line; format: cell-based, human; conditions: EGF 5 ng/ml
Procedure: Choriocarcinoma cells (Jeg-3, BeWo and Jar; ATCC) were cultured under similar conditions in DMEM/F-12 cell culture medium in 75 cm2 flasks with filter tops (Raylab). Cells were allowed to adhere and grow in an incubator equilibrated in 95%/5% air/CO2 to approximately 70% confluence, before being split every 2 to 3 days by addition of 2 ml of 1× concentrated trypsin-EDTA. After a centrifugation step for 5 min at 1100 rpm, cells were resuspended in 15 ml of fresh DMEM/F-12 in sterile tissue flasks and placed back in the incubator.
In this study, we plated 50,000 JAr cells per well. JAr cells are an immortalized line of cells derived from a human choriocarcinoma cells. Wells were pre-incubated with NRP-5RG D6A (SEQ ID NO: 1) at the concentrations indicated in FIG. 12, or epidermal growth factor (EGF; 5 ng/ml) for 2 hours. Subsequently, cells were exposed to the cultures for 48 hours to TNF-alpha (5 ng/ml) and interferon-gamma (5 ng/ml) to induce stress.

[1] = system: primary human trophoblasts; assay: Trophoblast proliferation assay (BrdU incorporation); format: cell-based; conditions: EGF 0.8×10^−9 M; 24 hrs; BrdU
Procedure: Cell proliferation was determined by BrdU incorporation to examine the effects of NRP-5RG D6A on the proliferation of trophoblasts. EGF (0.8×10^−9 M) was used as a positive control, since studies have previously shown it plays a role in enhancing trophoblast proliferation (Maruo et al., 1992).
Initially cells were treated with NRP-5RG D6A (SEQ ID NO: 1), EGF and BrdU (0.05 μM) for 72 hrs. After the first 24 hrs, an 80% media change was carried out since BrdU is toxic over long incubation periods. Following 72 hrs of incubation, the reaction was stopped by fixation in 4% PFA. However, with this experimental design, most trophoblasts would form syncytia by the end of the 72 hrs, hindering accurate examination of the proliferative effect of NRP-5RG D6A on trophoblasts. […] This allowed analysis of proliferation of mononuclear trophoblasts.
Cell proliferation was evaluated over 24 hrs after seeding 1.3×10^5 cells/cm^2 in culture media (1% serum) treated with 0.05 μM BrdU, NRP-5RG D6A and EGF (FIG. 13).

cerebellar cells = assay: Cerebellar microexplant proliferation assay (BrdU); format: cell-based, Wistar rat; conditions: p<0.01; SEQ ID NO: 1 at 1 pM, SEQ ID NO: 2 at 100 pM
Procedure: (§1) Laminated cerebellar cortices of the two hemispheres were explanted from a P3, P4, P7 or P8 Wistar rat, cut into small pieces in GBSS with 0.65% D(+)glucose solution, and triturated by a 0.4 mm gauge needle and subsequently pressed through a 125 μm pore size sieve. The obtained microexplants were centrifuged (60×g) 2 times for a medium exchange into serum-free BSA-supplemented START V-medium (Biochrom). Finally, the microexplants were reconstituted in 500 μl STARTV-medium. For culturing, 38 μl of the cell suspension was incubated for 1 hour on a poly-D-lysine-coated cover slip in a 35 mm Petri dish under an atmosphere comprising 5% CO2 in air and 100% humidity at 34° C. Subsequently, the injuring toxins (as described below), NRPs and 1 ml of STARTV-medium were added, and the cultures were evaluated after 2-3 days of culture.
Toxicological and drug administration experiments were designed such that 1/100 parts of toxin and neuroprotective drug were administered simultaneously to the freshly prepared cerebellar microexplants. Glutamate was prepared as a 50 mM stock solution in MilliQ water while 50 mM 3-nitropropionic acid was pH-adjusted (pH 6.8-7.2) in MilliQ water. The concentrations of the oxidative stress inducing toxin, 3-nitropropionic acid (3-NP), and the excitotoxin, glutamate, in the assay were 0.5 mM each. Lyophilized peptides were reconstituted in PBS or 100 μg/ml human transferrin as a 10 μM stock solution. Subsequently, serial dilutions were made. Cerebellar microexplants were cultivated for 48-72 hours at 34° C., 5% CO2 in air and 100% humidity before they were fixed by increasing amounts of paraformaldehyde (0.4%, 1.2%, 3% and 4%—each treatment 2-3 min).
Using the toxins described above, cerebellar explants were exposed for 24 hours, at the beginning of culturing to dilutions of NRP (survival assay) or NRP and 0.1 μM BrdU (proliferation assay). Subsequently, 80% of the medium was changed without addition of new toxins and NRPs. […]
For statistical analysis of proliferation BrdU-positive nuclei were counted. Statistical significance was measured by Student's t-test.

[2] = Pyridoxine-induced peripheral neuropathy: weight loss; format: in vivo, Sprague Dawley rats; conditions: 4 μg/kg IP daily days 1 to 10
Procedure: (§2) Adult male Sprague Dawley P50 rats were divided into the vehicle (n=9) and NRP-treated (n=10) groups. The rats were killed with an overdose of sodium pentobarbiturate on the 24 day from the first administration of pyridoxine.
(§3) From day 1, all rats were injected intraperitoneally (IP), twice daily, with 350 mg/kg pyridoxine for 8 consecutive days. Pyridoxine (Sigma) solution for injections was made using the following proportions: 95 mg of pyridoxine and 41 mg sodium bicarbonate in 1 ml of water.
(§4) On days 1 to 10 the vehicle group (n=10) received one daily IP-injection of 24 mM sucrose and the rats in the NRP-treated group (n=10) received 4 μg/kg of NRP-5 segment GG analogue D4A (GRRAAPGRAGG-NH2; SEQ ID NO:2) diluted in 24 mM sucrose. Lyophilised NRP was stored in the presence of sucrose or alternatively in trehalose at room temperature. For every intraperitoneal (i.p.) injection, NRP-5 segment GG analogue D4A was reconstituted to 100 μM peptide concentration containing 0.5M sucrose/trehalose, further diluted with PBS to the actual working solution of 5 μg/ml NRP-5 segment GG analogue D4A (containing 24 mM sucrose). A rat with a body weight of 250 g was injected with 200 μl of the working solution.
Animals are weighed daily during the experimental timeframe of 24 days. According to the study protocol, animals showing weight loss of more than 15% body weight were immediately killed. One of the control animals was sacrificed on day 4 of the pyridoxine treatment (control n=9).

[3] = system: peripheral neuropathy induced by pyridoxine; assay: Pyridoxine-induced peripheral neuropathy: motor impairment score; format: in vivo, Sprague Dawley rats
Procedure: as §2, §3
On days 1 to 10 the vehicle group (n=10) received one daily IP-injection of 24 mM sucrose and the rats in the NRP-treated group (n=10) received 4 μg/kg of NRP-5 segment GG analogue D4A (GRRAAPGRAGG-NH2; SEQ ID NO:2) diluted in 24 mM sucrose. Lyophilised NRP was stored in the presence of sucrose or alternatively in trehalose at room temperature. […]
Overall motor impairment was analysed by assessing the gait of each rat: 1) on a flat surface and 2) its ability to walk across a wooden beam. […]
If the animal walked with no difficulty whatsoever, it was scored as a “0.” If there appeared to be problems in its gait, it was placed on a raised wooden beam. […]

[4] = system: peripheral neuropathy induced by pyridoxine; assay: Pyridoxine-induced peripheral neuropathy: hind limb adduction test; format: in vivo, Sprague Dawley rats; conditions: end of the study
Procedure: as §2, §3
as §4, with “A rat with a body weight of 250 g was injected with 200 μl of the working solution.” left out
Overall motor movement impairment was analysed by assessing the ability of each rat to adduct (i.e. keep its limbs close to the body) its hind limbs. […] These were scored as “0”. Rats that drew their hind limbs back after a slight delay were scored as “1”. […]

[5] = system: peripheral neuropathy induced by pyridoxine; assay: Pyridoxine-induced peripheral neuropathy: precision beam walk test; format: in vivo, Sprague Dawley rats; conditions: for beam walk score: 7-step walk total score
Procedure: as §2, §3, §4
The precision beam walk test was used to assess the animals' precise coordinated movement on days 13, 17 and 24. Briefly, animals were habituated once daily for 7 days before start of pyridoxine treatment on a 1.5 m long beam (with two longitudinal stripes indicating the median of the beam). On day 0 (one day before pyridoxine/NRP treatment) a baseline of motor behaviour on the beam was videotaped. […] All scores were added for the 7-step walk to receive a total score for one tested animal at a given time point. If the tested rat could only stand on the beam but was unable to not walk it was given the score of 30, and if it was unable to stand on the beam, it was scored as 32.

[6] = system: experimental autoimmune encephalomyelitis (EAE) induced by MOG; assay: EAE model of multiple sclerosis, prophylactic treatment; format: in vivo, mice, strain C57Bl/6J; conditions: for incidence of disease / mortality / average clinical score: 14 days from day 5
cerebellar microexplants = assay: Cerebellar microexplant survival assay (3-NP/glutamate injury); format: cell-based, Wistar rat; conditions: in this particular assay; concentration not given
Procedure: as §1
Toxicological and drug administration experiments were designed such that 1/100 parts of toxin and neuroprotective drug were administered simultaneously to the freshly prepared cerebellar microexplants. […]
For statistical analysis of survival, four fields (each field having an area of 0.65 mm^2) of each fixed cerebellar culture with the highest cell densities were chosen, and cells displaying neurite outgrowth were counted (survival assay).

[7] = system: experimental autoimmune encephalomyelitis (EAE) induced by MOG; assay: EAE model of multiple sclerosis, therapeutic treatment; format: in vivo, mice, strain C57Bl/6J; conditions: score 0-6
[8] = 0.2 μg peptide/day (8.33 μg/kg) i.p.

EGF: epidermal growth factor; proliferation-inducing peptide used as internal/positive control [reference compound]
trophoblast proliferation in the absence of TNF-alpha injury (JAr cells): stimulated trophoblast proliferation
rescue of JAr cells from TNF-alpha-induced cytotoxicity (JAr cells; 2 hours pre-incubation): weak effect
increase in trophoblast proliferation compared to control [1]: 116.7±44%

GRRAAPGRAGG-NH2 (listed as Homo sapiens) [SEQ ID NO: 2, 11-mer analogue of NRP-5]
proliferation compared against injured cells without NRP (cerebellar cells): highly proliferation-inducing
initial weight loss [2]: 3.7%
body weight versus vehicle-treated group ([2]; day 8 until day 21): significantly higher
body weight at the peak of weight loss ([2]; day 10): 96.3+1.2 % of day 1 weight
motor impairment score ([3]; day 13 (peak of disease), score 0-3, 4 μg/kg IP daily days 1 to 10): 0.60+0.52
motor impairment outcome ([3]; day 24): recovered
animals with no sign of hind limb adduction after manual manipulation [4]: 9 out of 10
hind limb adduction score ([4]; score 0-3, 4 μg/kg IP daily days 1 to 10): 0.10+0.31
rats that performed the 7-step walk ([5]; day 13): 6 out of 10
beam walk score ([5]; day 13): 23.50 ± 2.46
animals that could perform the walk ([5]; day 17): all but one
beam walk score ([5]; day 17): 21.70 ± 1.43
beam walk, difference between vehicle and NRP-treated group ([5]; day 24): no longer a significant difference

GTPGRAEAGGQVSPCLAASCSQAYG (listed as Homo sapiens) [SEQ ID NO: 4, 25-mer NRP-4 GG]
incidence of disease ([6]; 1 ug peptide/day i.p.): 8 out of 10
mortality ([6]; 1 ug peptide/day i.p.): 0
average clinical score ([6]; day 27, 1 ug peptide/day i.p.): 1.0
disease profile compared to saline control ([6]; from 12 days onwards until day 27, 1 ug peptide/day i.p.): significant attenuation of the disease profile

IGF-1: Neuroprotectant named as comparator in the cerebellar microexplant assay [reference compound]
rescue values, protection (cerebellar microexplants): approximately 20%

REGRRDAPGRAGG (listed as Homo sapiens) [SEQ ID NO: 3, 13-mer NRP-5 segment RG]
mean clinical score after treatment ([7]; 0.1 μg peptide/animal (4.16 μg/kg) i.p. daily for 14 days from peak of disease): 1.16
mean clinical score before treatment ([7]; peak of the disease (day 17 after MOG-immunization)): 2.61

SEPEARRAPGRKGGVVCASLAADW (listed as Mus musculus) [SEQ ID NO: 5, 24-mer NRP-7 SW]
average clinical score [6, 8]: less than 0.5
incidence of disease [6, 8]: 7 out of 9
mortality [6, 8]: No animals died
clinical score compared to saline control ([6]; from day 12 onwards, 0.2 μg peptide/day i.p.): significant attenuation in clinical score
